From patent US20200055817A1 (AbbVie Deutschland GmbH & Co. KG, priority 2016, published 2020)
Each block holds one compound with its values, some of them ahead of it.

Tests used:
Type in all cases: cell-based
[1] = molecular target: T1, human EDG8 (S1PR5) receptor (Homo sapiens, UniProt Q9H228); test: Aequorin assay, agonist potency, CHO-A21-EDG8#12 cells; conditions: agonist mode, aequorin luminescence; read-out: S1P5 EC50 range #
T1 construct: carries the transgenes human EDG8 (S1PR5) receptor (Acession number NP_110387.1); expressed in transfected cells; host or cells: CHO-A21-EDG8#12 (CHO clone co-expressing mitochondrial aequorin and chimaeric Gaqi5)
Method in brief: (§1)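 CHO cells coexpressing receptor, mitochondrial aequorin and Gαqi5 (S1P3 pool: GNA16) were loaded overnight at RT with 5 μM coelenterazine h in 0.1% fatty-acid-free BSA buffer. Cells were injected onto compound, luminescence recorded 90 s and integrated, normalised to digitonin or 20 μM ATP; sigmoidal fit.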

[2] = molecular target: T2, human EDG1 (S1PR1) receptor (Homo sapiens, UniProt P21453); test: Aequorin assay, agonist potency, CHO-A21-Edg1#17 cells; conditions: agonist mode, aequorin luminescence; read-out: S1P1 EC50
T2 construct: expressed in transfected cells; host or cells: CHO-A21-Edg1#17 (CHO clone co-expressing mitochondrial aequorin and chimaeric Gaqi5)
Method in brief: as §1

S1P4 = molecular target: T3, S1P4 (Homo sapiens, UniProt O95977); test: Aequorin assay, agonist potency, S1P4; conditions: agonist mode, aequorin luminescence
T3 sequence (O95977 1-384): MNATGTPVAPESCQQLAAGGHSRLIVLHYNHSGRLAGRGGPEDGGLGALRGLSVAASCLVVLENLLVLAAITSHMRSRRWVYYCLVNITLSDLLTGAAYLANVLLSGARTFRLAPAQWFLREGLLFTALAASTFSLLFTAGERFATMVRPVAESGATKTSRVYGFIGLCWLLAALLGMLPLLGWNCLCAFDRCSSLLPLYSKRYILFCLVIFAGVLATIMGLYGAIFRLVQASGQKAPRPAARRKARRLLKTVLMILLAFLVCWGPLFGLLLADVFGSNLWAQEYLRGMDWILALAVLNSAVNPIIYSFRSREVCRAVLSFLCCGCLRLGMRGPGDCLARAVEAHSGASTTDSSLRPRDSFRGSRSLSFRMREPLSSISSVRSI
Method in brief: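 Aequorin luminescence read over 90 s after adding coelenterazine h–loaded cells (5 μM, overnight, RT) to test compound in phenol red-free DMEM/F12 buffer containing 0.1% fatty acid-free BSA. Responses integrated, scaled to the 100% signal from 100 μM digitonin or 20 μM ATP, and fitted to a sigmoidal dose-response model.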

T1 sequence (Q9H228 whole entry): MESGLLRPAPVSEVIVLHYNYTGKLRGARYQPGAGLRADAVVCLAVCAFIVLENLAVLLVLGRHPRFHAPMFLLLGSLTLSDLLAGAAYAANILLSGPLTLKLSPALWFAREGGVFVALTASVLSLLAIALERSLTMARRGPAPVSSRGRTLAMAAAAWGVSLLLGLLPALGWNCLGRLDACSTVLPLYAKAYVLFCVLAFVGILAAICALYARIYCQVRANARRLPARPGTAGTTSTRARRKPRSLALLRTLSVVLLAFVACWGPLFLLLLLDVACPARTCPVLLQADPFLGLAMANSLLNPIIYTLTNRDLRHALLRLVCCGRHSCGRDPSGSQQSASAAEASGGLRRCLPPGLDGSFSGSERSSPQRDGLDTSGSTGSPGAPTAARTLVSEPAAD
T2 sequence (P21453 whole entry): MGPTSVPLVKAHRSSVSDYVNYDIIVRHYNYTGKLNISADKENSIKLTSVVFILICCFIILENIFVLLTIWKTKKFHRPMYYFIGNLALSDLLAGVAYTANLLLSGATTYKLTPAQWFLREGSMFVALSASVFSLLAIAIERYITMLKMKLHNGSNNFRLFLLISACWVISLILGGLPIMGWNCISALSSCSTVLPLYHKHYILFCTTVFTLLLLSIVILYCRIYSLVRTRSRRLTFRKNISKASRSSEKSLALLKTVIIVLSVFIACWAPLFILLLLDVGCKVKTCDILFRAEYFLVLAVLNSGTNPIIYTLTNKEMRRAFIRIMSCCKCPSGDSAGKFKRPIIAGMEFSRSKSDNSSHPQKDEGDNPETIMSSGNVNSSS

Structure (SMILES): CC(C)Oc1ccc(C#Cc2ccc3c(c2)CC2(C3)CN(CC3(C(=O)O)CC3)C2)cn1 [Example 114, 1-((5′-((6-isopropoxypyridin-3-yl)ethynyl)-1′,3′-dihydrospiro[azetidine-3,2′-inden]-1-yl)methyl)cyclopropanecarboxylic acid]
EC50 [1]: 100 to 1000 nM | EC50 [2]: > 1000 nM | EC50 (S1P4): > 1000 nM

Structure (SMILES): O=C(O)C1(CN2CC3(Cc4ccc(C#Cc5ccc(OC6CCCC6)nc5)cc4C3)C2)CC1 [Example 116, 1-((5′-((6-(cyclopentyloxy)pyridin-3-yl)ethynyl)-1′,3′-dihydrospiro[azetidine-3,2′-inden]-1-yl)methyl)cyclopropanecarboxylic acid]
EC50 [1]: 10 to 100 nM | EC50 [2]: > 1000 nM | EC50 (S1P4): > 1000 nM

Structure (SMILES): CCOc1cc(F)c(COc2ccc3c(c2)CC2(C3)CN(CC3(C(=O)O)CC3)C2)c(F)c1 [Example 122, 1-((5′-((4-ethoxy-2,6-difluorobenzyl)oxy)-1′,3′-dihydrospiro[azetidine-3,2′-inden]-1-yl)methyl)cyclopropanecarboxylic acid]
EC50 [1]: 1000 to 10000 nM | EC50 [2]: > 1000 nM | EC50 (S1P4): < 1000 nM

Structure (SMILES): CCOc1ccc(COc2ccc3c(c2)CC2(C3)CN(CC3(C(=O)O)CC3)C2)c(F)c1F [Example 123, 1-((5′-((4-ethoxy-2,3-difluorobenzyl)oxy)-1′,3′-dihydrospiro[azetidine-3,2′-inden]-1-yl)methyl)cyclopropanecarboxylic acid]
EC50 [1]: 1000 to 10000 nM | EC50 [2]: > 1000 nM | EC50 (S1P4): < 1000 nM

Structure (SMILES): O=C(O)C1(CN2CC3(Cc4ccc(OCc5cc(Cl)cnc5Cl)cc4C3)C2)CC1 [Example 124, 1-((5′-((2,5-dichloropyridin-3-yl)methoxy)-1′,3′-dihydrospiro[azetidine-3,2′-inden]-1-yl)methyl)cyclopropanecarboxylic acid]
EC50 [1]: 1000 to 10000 nM | EC50 [2]: > 1000 nM | EC50 (S1P4): < 1000 nM

Structure (SMILES): O=C(O)C1(CN2CC3(Cc4ccc(OC5Cc6ccccc6C5)cc4C3)C2)CC1 [Example 127, 1-((5′-((2,3-dihydro-1H-inden-2-yl)oxy)-1′,3′-dihydrospiro[azetidine-3,2′-inden]-1-yl)methyl)cyclopropanecarboxylic acid]
EC50 [1]: 1000 to 10000 nM | EC50 [2]: > 1000 nM | EC50 (S1P4): < 1000 nM

Structure (SMILES): O=C(O)C1(CN2CC3(Cc4ccc(OC5CCc6cccc(Cl)c65)cc4C3)C2)CC1 (stereo not drawn) [Example 129, 1-((5′-((7-chloro-2,3-dihydro-1H-inden-1-yl)oxy)-1′,3′-dihydrospiro[azetidine-3,2′-inden]-1-yl)methyl)cyclopropanecarboxylic acid]
EC50 [1]: ≤ 10 nM | EC50 [2]: > 1000 nM | EC50 (S1P4): < 1000 nM

Structure (SMILES): O=C(O)C1(CN2CC3(Cc4ccc(OCc5c(F)cccc5C5CC5)cc4C3)C2)CC1 [Example 131, 1-((5′-((2-cyclopropyl-6-fluorobenzyl)oxy)-1′,3′-dihydrospiro[azetidine-3,2′-inden]-1-yl)methyl)cyclopropanecarboxylic acid]
EC50 [1]: ≤ 10 nM | EC50 [2]: > 1000 nM | EC50 (S1P4): < 1000 nM

Structure (SMILES): Cc1ccccc1CCOc1ccc2c(c1)CC1(C2)CN(CC2(C(=O)O)CC2)C1 [Example 134, 1-((5′-(2-methylphenethoxy)-1′,3′-dihydrospiro[azetidine-3,2′-inden]-1-yl)methyl)cyclopropanecarboxylic acid]
EC50 [1]: 1000 to 10000 nM | EC50 [2]: > 1000 nM | EC50 (S1P4): < 1000 nM

Structure (SMILES): Cc1ccccc1COc1ccc2c(c1)CC1(C2)CN(CC2(C(=O)O)CC2)C1 [Example 138, 1-((5′-((2-methylbenzyl)oxy)-1′,3′-dihydrospiro[azetidine-3,2′-inden]-1-yl)methyl)cyclopropanecarboxylic acid]
EC50 [1]: 1000 to 10000 nM | EC50 [2]: > 1000 nM | EC50 (S1P4): < 1000 nM

The remaining lines, values ahead:

EC50 [1]: ≤ 10 nM | EC50 [2]: < 1000 nM | EC50 (S1P4): > 1000 nM
Structure (SMILES): CC(C)Oc1ccc(C#Cc2ccc3c(c2)CC2(C3)CN(CC3(C(=O)O)CC3)C2)cc1 [Example 113, 1-((5′-((4-isopropoxyphenyl)ethynyl)-1′,3′-dihydrospiro[azetidine-3,2′-inden]-1-yl)methyl)cyclopropanecarboxylic acid]

EC50 [1]: ≤ 10 nM | EC50 [2]: < 1000 nM | EC50 (S1P4): > 1000 nM
Structure (SMILES): CC(Oc1ccc(C#Cc2ccc3c(c2)CC2(C3)CN(CC3(C(=O)O)CC3)C2)cn1)C(F)(F)F (stereo not drawn) [Example 117, 1-((5′-((6-((1,1,1-trifluoropropan-2-yl)oxy)pyridin-3-yl)ethynyl)-1′,3′-dihydrospiro[azetidine-3,2′-inden]-1-yl)methyl)cyclopropanecarboxylic acid]

EC50 [1]: 1000 to 10000 nM | EC50 [2]: > 1000 nM | EC50 (S1P4): < 1000 nM
Structure (SMILES): COc1ccc(C#Cc2ccc3c(c2)CC2(C3)CN(CC3(C(=O)O)CC3)C2)c(C)c1 [Example 118, 1-((5′-((4-methoxy-2-methylphenyl)ethynyl)-1′,3′-dihydrospiro[azetidine-3,2′-inden]-1-yl)methyl)cyclopropanecarboxylic acid]

EC50 [1]: 1000 to 10000 nM | EC50 [2]: > 1000 nM | EC50 (S1P4): > 1000 nM
Structure (SMILES): CC(C)Oc1ccc(CCc2ccc3c(c2)CC2(C3)CN(CC3(C(=O)O)CC3)C2)cn1 [Example 119, 1-((5′-(2-(6-isopropoxypyridin-3-yl)ethyl)-1′,3′-dihydrospiro[azetidine-3,2′-inden]-1-yl)methyl)cyclopropanecarboxylic acid]

EC50 [1]: 1000 to 10000 nM | EC50 [2]: > 1000 nM | EC50 (S1P4): < 1000 nM
Structure (SMILES): CCOc1c(F)cc(COc2ccc3c(c2)CC2(C3)CN(CC3(C(=O)O)CC3)C2)cc1F [Example 120, 1-((5′-((4-ethoxy-3,5-difluorobenzyl)oxy)-1′,3′-dihydrospiro[azetidine-3,2′-inden]-1-yl)methyl)cyclopropanecarboxylic acid]

EC50 [1]: 1000 to 10000 nM | EC50 [2]: > 1000 nM | EC50 (S1P4): > 1000 nM
Structure (SMILES): COc1ccc(COc2ccc3c(c2)CC2(C3)CN(CC3(C(=O)O)CC3)C2)c(C)n1 [Example 121, 1-((5′-((6-methoxy-2-methylpyridin-3-yl)methoxy)-1′,3′-dihydrospiro[azetidine-3,2′-inden]-1-yl)methyl)cyclopropanecarboxylic acid]

EC50 [1]: 10 to 100 nM | EC50 [2]: > 1000 nM | EC50 (S1P4): < 1000 nM
Structure (SMILES): O=C(O)C1(CN2CC3(Cc4ccc(OCc5cccc6c5CCC6)cc4C3)C2)CC1 [Example 125, 1-((5′-((2,3-dihydro-1H-inden-4-yl)methoxy)-1′,3′-dihydrospiro[azetidine-3,2′-inden]-1-yl)methyl)cyclopropanecarboxylic acid]

EC50 [1]: 100 to 1000 nM | EC50 [2]: > 1000 nM | EC50 (S1P4): < 1000 nM
Structure (SMILES): O=C(O)C1(CN2CC3(Cc4ccc(OCC5CCCCC5)cc4C3)C2)CC1 [Example 126, 1-((5′-(cyclohexylmethoxy)-1′,3′-dihydrospiro[azetidine-3,2′-inden]-1-yl)methyl)cyclopropanecarboxylic acid]

EC50 [1]: 1000 to 10000 nM | EC50 [2]: > 1000 nM | EC50 (S1P4): > 1000 nM
Structure (SMILES): O=C(O)C1(CN2CC3(Cc4ccc(OCc5ccc(OCC6CC6)cc5)cc4C3)C2)CC1 [Example 128, 1-((5′-((4-(cyclopropylmethoxy)benzyl)oxy)-1′,3′-dihydrospiro[azetidine-3,2′-inden]-1-yl)methyl)cyclopropanecarboxylic acid]

EC50 [1]: 1000 to 10000 nM | EC50 [2]: > 1000 nM | EC50 (S1P4): < 1000 nM
Structure (SMILES): O=C(O)C1(CN2CC3(Cc4ccc(OC5CCc6ccccc65)cc4C3)C2)CC1 (stereo not drawn) [Example 130, 1-((5′-((2,3-dihydro-1H-inden-1-yl)oxy)-1′,3′-dihydrospiro[azetidine-3,2′-inden]-1-yl)methyl)cyclopropanecarboxylic acid]

EC50 [1]: 1000 to 10000 nM | EC50 [2]: > 1000 nM | EC50 (S1P4): < 1000 nM
Structure (SMILES): O=C(O)C1(CN2CC3(Cc4ccc(OCCC5CCCCC5)cc4C3)C2)CC1 [Example 132, 1-((5′-(2-cyclohexylethoxy)-1′,3′-dihydrospiro[azetidine-3,2′-inden]-1-yl)methyl)cyclopropanecarboxylic acid]

EC50 [1]: 1000 to 10000 nM | EC50 [2]: > 1000 nM | EC50 (S1P4): > 1000 nM
Structure (SMILES): COc1ccc(CCOc2ccc3c(c2)CC2(C3)CN(CC3(C(=O)O)CC3)C2)cc1 [Example 135, 1-((5′-(4-methoxyphenethoxy)-1′,3′-dihydrospiro[azetidine-3,2′-inden]-1-yl)methyl)cyclopropanecarboxylic acid]

EC50 [1]: 1000 to 10000 nM | EC50 [2]: > 1000 nM | EC50 (S1P4): < 1000 nM
Structure (SMILES): O=C(O)C1(CN2CC3(Cc4ccc(OCCc5ccccc5F)cc4C3)C2)CC1 [Example 136, 1-((5′-(2-fluorophenethoxy)-1′,3′-dihydrospiro[azetidine-3,2′-inden]-1-yl)methyl)cyclopropanecarboxylic acid]

EC50 [1]: 1000 to 10000 nM | EC50 [2]: > 1000 nM | EC50 (S1P4): < 1000 nM
Structure (SMILES): O=C(O)C1(CN2CC3(Cc4ccc(OCCc5ccc(F)cc5)cc4C3)C2)CC1 [Example 137, 1-((5′-(4-fluorophenethoxy)-1′,3′-dihydrospiro[azetidine-3,2′-inden]-1-yl)methyl)cyclopropanecarboxylic acid]
